For this series the following is noted: 298.15 K, Liquid, Vibrating tube method.

Here are results for 1 compound from the NIST ThermoML archive (doi:10.1016/j.fluid.2006.05.027).

± gives the expanded uncertainty stated by the source.

Consider `C=C(C)C1CC=C(C)CC1` (configuration not stated) [1-methyl-4-(1-methylethenyl)cyclohexene], for which the mass density (usually the mass of a sample divided by its volume) is reported as 844 ± 0.7 kg/m3 (7640 kPa) and 845.6 ± 0.7 kg/m3 (10000 kPa).
